Laboratory results: ChEMBL document CHEMBL4613261, “Metabolic and Pharmaceutical Aspects of Fluorinated Compounds” (J Med Chem, 2020)
In brackets after ≈: the same amount, converted by molar mass. Several values for one entry are separate records, joined by “and”; a condition that tells them apart may be missing. Equal entries are not always repeated.

Columns and labels:
[1] = Lipophilicity, log P of the compound by C18 reverse phase HPLC; assay type: physicochemical
[2] = target: T1, MGST1 (microsomal glutathione S-transferase 1) (Rattus norvegicus, UniProt P08011); assay: Substrate activity at MGST1 in rat liver microsomes assessed as substrate depletion at 50 uM incubated for 30 mins in presence of GSH by liquid chromatography/mass spectrometry; assay type: ADME; conditions: read-out: Activity
T1 sequence (P08011 whole entry): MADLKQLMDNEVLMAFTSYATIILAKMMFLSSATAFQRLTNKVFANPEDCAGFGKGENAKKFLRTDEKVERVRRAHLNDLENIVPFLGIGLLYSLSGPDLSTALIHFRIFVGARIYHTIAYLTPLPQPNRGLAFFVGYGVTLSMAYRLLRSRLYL

[3] = target: T2, Microsomal glutathione S-transferase 1 (Rattus norvegicus, UniProt P08011); assay: Substrate activity at MGST1 in rat liver microsomes assessed as reactivity rate at 50 uM incubated for 1 to 40 mins in presence of GSH by liquid chromatography/mass spectrometry
T2 sequence (P08011 whole entry): T1 sequence (P08011 whole entry)

[4] = Substrate activity at GSTZ (unknown origin) assessed as rate of drug conversion to S-(carboxymethyl)-glutathione per mg of protein; assay type: ADME; conditions: human
[5] = target: Alanine racemase, biosynthetic (Escherichia coli K-12, UniProt P0A6B4); assay: Substrate activity at Escherichia coli B alanine racemase assessed as partition ratio by measuring ratio of turnover rate to inactivation rate
[6] = Solubility of the compound in aqueous buffer at pH 6.5; assay type: physicochemical
[7] = Clearance in human liver microsomes assessed per mg protein; assay type: ADME, Microsome
[8] = Apparent half life in rat blood; assay type: ADME, tissue-based
[9] = Apparent half life in rat brain; assay type: ADME, tissue-based
[10] = Lipophilicity, log P of the compound; conditions: octanol/water
[11] = Protein binding in human plasma
[12] = Intrinsic clearance in human liver microsome; assay type: ADME; conditions: liver microsomes, read-out: CLH
[13] = Aqueous solubility of the compound in pH 6.8 buffer
[14] = Substrate activity at cytochrome p450 in phenobarbital-induced rat liver microsomes assessed as cytochrome p450-mediated-deethoxylation per mg of protein; assay type: ADME
[15] = Drug elimination in human; assay type: ADME; conditions: read-out: Drug excretion
[16] = Acute toxicity in rat measured after 4 hrs; conditions: in vivo
[17] = Drug metabolism in Sprague-Dawley rat liver assessed as fluoro-acetic acid metabolite level at 100 mg/kg, po measured after 2 to 8 hrs; assay type: ADME, organism-based; conditions: in vivo
[18] = Drug metabolism in Sprague-Dawley rat kidney assessed as fluoro-acetic acid metabolite level at 100 mg/kg, po measured after 2 to 8 hrs; assay type: ADME, organism-based; conditions: in vivo
[19] = Drug metabolism in Sprague-Dawley rat heart assessed as fluoro-acetic acid metabolite level at 100 mg/kg, po measured after 2 to 8 hrs; assay type: ADME, organism-based; conditions: in vivo
[20] = target: T3, Adenosine deaminase (Rattus norvegicus, UniProt Q920P6); assay: Prodrug conversion in rat brain assessed as rate of adenosine deaminase-mediated didanosine formation by HPLC analysis; assay type: ADME, tissue-based; conditions: in vivo
T3 sequence (Q920P6 whole entry): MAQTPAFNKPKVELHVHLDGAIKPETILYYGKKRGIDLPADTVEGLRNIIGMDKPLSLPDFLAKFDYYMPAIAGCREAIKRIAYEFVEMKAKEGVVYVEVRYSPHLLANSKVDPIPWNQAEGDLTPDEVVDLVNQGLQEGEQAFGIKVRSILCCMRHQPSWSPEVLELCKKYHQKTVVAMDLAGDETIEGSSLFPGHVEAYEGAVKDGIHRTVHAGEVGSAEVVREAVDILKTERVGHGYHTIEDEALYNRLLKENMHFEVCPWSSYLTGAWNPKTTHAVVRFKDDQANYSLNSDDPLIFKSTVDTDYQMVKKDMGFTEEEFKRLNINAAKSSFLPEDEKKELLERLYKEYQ

[21] = Prodrug conversion in rat brain assessed as rate of didanosine formation by HPLC analysis; assay type: ADME, tissue-based; conditions: in vivo
[22] = Prodrug conversion in rat brain assessed as total fraction of didanosine formation by HPLC analysis; assay type: ADME, tissue-based; conditions: in vivo
[23] = Prodrug conversion in rat blood assessed as total fraction of didanosine formation by HPLC analysis; assay type: ADME, tissue-based
[24] = target: T3, Adenosine deaminase; assay: Prodrug conversion in rat blood assessed as rate of adenosine deaminase-mediated didanosine formation by HPLC analysis; assay type: ADME, tissue-based
[25] = Prodrug conversion in rat blood assessed as rate of didanosine formation by HPLC analysis; assay type: ADME, tissue-based
[26] = Toxicity in dog; design: species or system Canis lupus familiaris; conditions: in vivo
[27] = target: T4, Maleylacetoacetate isomerase (Rattus norvegicus, UniProt P57113); assay: Substrate activity at GSTZ1 in rat liver cytosol assessed as defluorination activity; assay type: ADME, subcellular
T4 sequence (P57113 whole entry): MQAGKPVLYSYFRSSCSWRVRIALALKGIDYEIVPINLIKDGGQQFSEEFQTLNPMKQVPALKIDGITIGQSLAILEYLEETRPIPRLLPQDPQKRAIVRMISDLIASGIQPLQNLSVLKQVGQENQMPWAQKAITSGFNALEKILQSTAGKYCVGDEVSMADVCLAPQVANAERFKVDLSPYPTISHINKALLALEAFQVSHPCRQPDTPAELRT

[28] = Substrate activity at recombinant human GSTZ1C expressed in Escherichia coli M15 assessed as rate of catalysis per mg of protein; assay type: ADME
[29] = Toxicity in Wistar rat measured for 6 days; conditions: in vivo, 144 h
[30] = target: T5, Lysine decarboxylase (Hafnia alvei, UniProt P05033); assay: Time dependent inhibition of Hafnia alvei lysine decarboxylase using L-lysine by Kitz-Wilson analysis
T5 sequence (P05033 whole entry): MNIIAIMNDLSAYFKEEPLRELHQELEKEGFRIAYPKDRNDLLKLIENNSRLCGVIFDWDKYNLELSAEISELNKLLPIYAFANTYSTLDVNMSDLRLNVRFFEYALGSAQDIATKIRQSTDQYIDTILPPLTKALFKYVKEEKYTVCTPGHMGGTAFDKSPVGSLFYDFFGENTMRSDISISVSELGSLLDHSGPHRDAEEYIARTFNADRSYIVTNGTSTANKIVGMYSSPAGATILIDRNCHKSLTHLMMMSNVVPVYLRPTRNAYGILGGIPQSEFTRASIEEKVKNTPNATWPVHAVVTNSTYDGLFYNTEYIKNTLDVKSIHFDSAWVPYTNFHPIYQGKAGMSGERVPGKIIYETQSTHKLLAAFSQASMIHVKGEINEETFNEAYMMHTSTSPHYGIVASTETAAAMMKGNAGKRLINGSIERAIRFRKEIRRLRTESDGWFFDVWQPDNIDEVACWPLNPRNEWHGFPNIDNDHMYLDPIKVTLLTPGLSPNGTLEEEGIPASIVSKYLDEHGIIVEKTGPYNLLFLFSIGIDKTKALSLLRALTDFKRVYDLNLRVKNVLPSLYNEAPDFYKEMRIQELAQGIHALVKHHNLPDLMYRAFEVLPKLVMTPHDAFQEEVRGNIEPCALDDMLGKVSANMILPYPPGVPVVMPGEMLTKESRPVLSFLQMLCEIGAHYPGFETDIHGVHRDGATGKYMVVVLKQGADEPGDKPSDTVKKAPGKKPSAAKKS

Chain of Alanine racemase, biosynthetic (P0A6B4 whole entry): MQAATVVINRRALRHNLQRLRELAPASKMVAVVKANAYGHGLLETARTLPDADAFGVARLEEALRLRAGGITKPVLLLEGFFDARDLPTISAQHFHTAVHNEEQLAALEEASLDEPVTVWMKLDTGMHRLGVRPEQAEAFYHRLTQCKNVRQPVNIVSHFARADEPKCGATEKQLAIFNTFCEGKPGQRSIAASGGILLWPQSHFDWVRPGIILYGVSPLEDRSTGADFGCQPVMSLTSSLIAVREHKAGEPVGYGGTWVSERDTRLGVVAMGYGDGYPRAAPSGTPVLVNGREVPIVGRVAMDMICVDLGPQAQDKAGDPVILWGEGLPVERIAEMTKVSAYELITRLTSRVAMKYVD

FC(F)(F)Oc1ccccc1
logP [1]: 3.35

Clc1cccnc1Cl
metabolised at 0.5 h, 50 µM [2]: 26%

Clc1ccccn1 [2-CHLOROPYRIDINE]
Activity [3]: < 2 nmol/min/mg

CC(Br)C(=O)O (racemic)
K [4]: 2142 nmol/min

COc1cccnc1Cl
metabolised at 0.5 h, 50 µM [2]: 17%

Nc1cccnc1Cl
metabolised at 0.5 h, 50 µM [2]: < 5%

NC(C(=O)O)C(F)(F)F (racemic)
Ratio [5]: 10

Oc1cccnc1Cl
metabolised at 0.5 h, 50 µM [2]: < 5%

FCC(F)Cc1c[nH]c2ccccc12 (stereo unspecified)
solubility [6]: > 1720 µM
CLH [7]: 212 min⁻¹ µL⁻¹

OC[C@@H]1CC[C@H](n2cnc3c(Br)ncnc32)O1
half-life [8]: 4.67 h
half-life [9]: 0.333 h

Nc1nc2ccc(SC(F)(F)F)cc2s1
logP [10]: 3.6
fraction unbound [11]: 0.24
microsomal CLint [12]: 40.9 µL/min/mg
solubility ([13]; pH 6.8 buffer): 124 µM (≈ 31 µg/mL)

N[C@@H](CF)C(=O)O
Ratio [5]: 790

CCOc1ccc(NC(C)=O)cc1 [PHENACETIN]
Activity [14]: 3.48 nmol/min

FC(F)(F)C(Cl)Br (stereo unspecified) [HALOTHANE]
dose excreted [15]: 80%

Cc1cccnc1Cl
metabolised at 0.5 h, 50 µM [2]: 14%

FC(F)=C(F)C(F)(F)F
Activity [16]: 3000 ppm

C[C@H](NC(=O)[C@H](Cc1ccccc1)NC(=O)OCc1ccccc1)C(=O)CF
Drug metabolism [17]: 0.2 to 0.9 µg/g
Drug metabolism [18]: 0.2 to 0.9 µg/g
Drug metabolism [19]: 0.2 to 0.9 µg/g

N[C@H](CF)C(=O)O [FLUDALANINE]
Ratio [5]: 810

CC(F)(F)Oc1ccccc1
logP [1]: 2.87

OC[C@@H]1CC[C@H](n2cnc3c(F)ncnc32)O1
half-life [8]: 0.0583 h
K [20]: 1.51 min⁻¹
K [21]: 0 min⁻¹
Fm [22]: 1
half-life [9]: 0.00767 h
Fm [23]: 0.54
K [24]: 0.15 min⁻¹
K [25]: 0.13 min⁻¹

FC(F)=C(F)F [TETRAFLUOROETHYLENE]
Activity [16]: 40000 ppm

OC[C@@H]1CC[C@H](n2cnc3c(I)ncnc32)O1
half-life [8]: 28.2 h
half-life [9]: 2.97 h

CC(Cl)C(=O)O (racemic)
K [4]: 1655 nmol/min

CC(I)C(=O)O (racemic)
K [4]: 2532 nmol/min

O=C(O)CF [FLUOROACETATE]
LD [26]: 0.05 mg/kg
K [4]: 172 nmol/min
Activity [27]: 3%
K [28]: 210 nmol/min

OCC(F)(F)F [TRIFLUOROETHANOL]
LD50 [29]: 440 mg/kg and 210 mg/kg

OC[C@@H]1CC[C@H](n2cnc3c(Cl)ncnc32)O1
half-life [8]: 4.5 h
K [20]: 0.032 min⁻¹
K [21]: 0 min⁻¹
Fm [22]: 1
half-life [9]: 0.317 h
Fm [23]: 0.28
K [24]: 3 ×10⁻³ /min
K [25]: 7.4 ×10⁻³ /min

N[C@H](C(=O)O)C(F)F
Ratio [5]: 5000

Nc1nc2ccc(OC(F)(F)F)cc2s1 [RILUZOLE]
PPB [11]: 85%
microsomal CLint [12]: 38.9 µL/min/mg

O=[N+]([O-])c1cccnc1Cl
Activity [3]: 236 nmol/min/mg
metabolised at 0.5 h, 50 µM [2]: 100%

O=[N+]([O-])c1cn2c(n1)OC[C@@H](OCc1ccc(SC(F)(F)F)cc1)C2
logP [10]: 2.7
fraction unbound [11]: 0.4
microsomal CLint [12]: < 25 µL/min/mg
solubility ([13]; pH 6.8 buffer): 5 µM (≈ 1.88 µg/mL)

FC(F)(F)c1cccnc1Cl
metabolised at 0.5 h, 50 µM [2]: 31%

CCOc1ccc2ccc(=O)oc2c1 [ETHOXYCOUMARIN]
Activity [14]: 1.93 nmol/min

C=C(F)[C@@](N)(CCCCN)C(=O)O
Ki [30]: 470 µM

O=[N+]([O-])c1cn2c(n1)OC[C@@H](OCc1ccc(OC(F)(F)F)cc1)C2 [PRETOMANID]
logP [10]: 2.2
PPB [11]: 38%
microsomal CLint [12]: < 25 µL/min/mg
solubility ([13]; buffer): 8 µM (≈ 2.87 µg/mL)

N[C@@H](C(=O)O)C(F)F
Ratio [5]: 2600

C=C(F)[C@](N)(CCCCN)C(=O)O
Ki [30]: 630 µM

CCOc1ccccc1 [PHENETOLE]
logP [1]: 2.96
